In brackets after ≈: the same amount, converted by molar mass. Where two headings read alike, the source gives them in different places.
Assays:
Vero cells = test: Cytotoxicity test (MTT); type: cell-based; settings: Chlorocebus sabaeus
[1] = Vero cells, MTT, 48 hours of incubation, highest concentration 64 μg/mL, read-out: IC50

| Compound | melting point [°C] | IC50 (Vero cells; [1]) [µg/mL] | IC50 (Vero cells; Vero, 48 h) [µg/mL] |
| --- | --- | --- | --- |
| O=C(NC[C@@H]1OC(=O)N2c3cc(F)c(N4C5CCC4CSC5)cc3OC[C@@H]12)c1cnccn1 | > 250 |  |  |
| CNC[C@@H]1OC(=O)N2c3cc(F)c(N4CCSCC4)cc3OC[C@@H]12 [Compound 2, (3S,3aS)-8-Fluoro-3-((methylamino)methyl)-7-thiomorpholino-3a,4-dihydro-1H,3H-benzo[b]oxazolo[3,4-d][1,4]oxazin-1-one] | 155 to 156 | 46.5 (≈ 132 µM) |  |
| CS(=O)(=O)NC[C@@H]1OC(=O)N2c3cc(F)c(N4CCSCC4)cc3OC[C@@H]12 [Compound 3, N-(((3S,3aS)-8-Fluoro-1-oxo-7-thiomorpholino-3a,4-dihydro-1H,3H-benzo[b]oxazolo[3,4-d][1,4]oxazin-3-yl)methyl)methanesulfonamide] | 234 to 235 | > 64 |  |
| CC(C)C(=O)NC[C@@H]1OC(=O)N2c3cc(F)c(N4C5CCC4CSC5)cc3OC[C@@H]12 [Compound 15] | 164 to 165 |  | > 64 |
| COC(=O)NC[C@@H]1OC(=O)N2c3cc(F)c(N4[C@@H]5CC[C@H]4CSC5)cc3OC[C@@H]12 [Compound 18, Methyl (((3S,3aS)-7-((1R,5S)-3-thia-8-azabicyclo[3.2.1]octan-8-yl)-8-fluoro-1-oxo-3a,4-dihydro-1H,3H-benzo[b]oxazolo[3,4-d][1,4]oxazin-3-yl)methyl)carbamate] | 149 to 151 |  | > 64 |
| O=C1O[C@@H](CNc2ccon2)[C@@H]2COc3cc(N4[C@@H]5CC[C@H]4CSC5)c(F)cc3N12 [Compound 19, (3S,3aS)-7-((1R,5S)-3-thia-8-azabicyclo[3.2.1]octan-8-yl)-8-fluoro-3-((isoxazol-3-ylamino)methyl)-3a,4-dihydro-1H,3H-benzo[b]oxazolo[3,4-d][1,4]oxazin-1-one] | 180 to 182 |  | > 64 |
| O=C(NC[C@@H]1OC(=O)N2c3cc(F)c(N4[C@@H]5CC[C@H]4CSC5)cc3OC[C@@H]12)c1ccncc1 [Compound 20, N-(((3S,3aS)-7-((1R,5S)-3-thia-8-azabicyclo[3.2.1]octan-8-yl)-8-fluoro-1-oxo-3a,4-dihydro-1H,3H-benzo[b]oxazolo[3,4-d][1,4]oxazin-3-yl)methyl)isonicotinamide] | 149 to 150 |  | > 64 |
| O=C1O[C@@H](Cn2ccnn2)[C@@H]2COc3cc(N4[C@@H]5CC[C@H]4CSC5)c(F)cc3N12 [Compound 22, (3S,3aS)-3-((1H-1,2,3-Triazol-1-yl)methyl)-7-((1R,5S)-3-thia-8-azabicyclo[3.2.1]octan-8-yl)-8-fluoro-3a,4-dihydro-1H,3H-benzo[b]oxazolo[3,4-d][1,4]oxazin-1-one] | 225 to 227 |  | > 64 |
| CC(=O)NC[C@@H]1OC(=O)N2c3cc(F)c(N4CC5(COC5)C4)cc3OC[C@@H]12 [Compound 24, N-(((3S,3aS)-8-Fluoro-1-oxo-7-(2-oxa-6-azaspiro[3.3]heptan-6-yl)-3a,4-dihydro-1H,3H-benzo[b]oxazolo[3,4-d][1,4]oxazin-3-yl)methyl)acetamide] | 105 to 107 | > 64 |  |
| O=C(NC[C@@H]1OC(=O)N2c3cc(F)c(N4CC5(COC5)C4)cc3OC[C@@H]12)C1CC1 [Compound 25, N-(((3S,3aS)-8-Fluoro-1-oxo-7-(2-oxa-6-azaspiro[3.3]heptan-6-yl)-3a,4-dihydro-1H,3H-benzo[b]oxazolo[3,4-d][1,4]oxazin-3-yl)methyl)cyclopropanecarboxamide] | 181 to 183 | > 64 |  |
| O=C(NC[C@@H]1OC(=O)N2c3cc(F)c(N4CC5(COC5)C4)cc3OC[C@@H]12)C1CCC1 [Compound 26, N-(((3S,3aS)-8-Fluoro-1-oxo-7-(2-oxa-6-azaspiro[3.3]heptan-6-yl)-3a,4-dihydro-1H,3H-benzo[b]oxazolo[3,4-d][1,4]oxazin-3-yl)methyl)cyclobutanecarboxamide] | 118 to 120 | > 64 |  |

Source: patent US11332477B2, “Nitrogen containing heterocycle substituted benzoxazine oxazolidinone compound and preparation method and use thereof” (INSTITUTE OF MATERIA MEDICA, CHINESE ACADEMY OF MEDICAL …, priority 2017, dated 2022)
